Reference: patent US9951028B2, “Agricultural chemicals” (REDAG CROP PROTECTION LTD, priority 2013, dated 2018)

Columns and labels:
Assay type in all cases: in vivo
[1] = test system: garden cress, Lepidium sativum; assay: Herbicidal efficacy screen, potter tower spray, necrosis assessed; settings: 200 g/ha
Description: (§1) Compounds 22, 23 and 24 were screened for herbicidal efficacy against target plants: garden cress, Lepidium sativum, common chickweed, Stellaria media, and white mustard […] alba Plants were obtained as seeds and were grown to the 2-4 true leaf stage. Plants were grown under laboratory conditions, individually in seed trays. Each plant (in an approximately 3 cm diameter plug) was then detached from the tray for spraying. The compounds were screened at a range of five concentrations, diluted in acetone and TweenTM. A carrier only control was also conducted. Treatments were applied directly onto the plants, using a potter tower, at a specified application rate. One plant of each species was sprayed using a potter tower. The 3 different types of plants were placed on a 10 cm diameter platform directly beneath the potter sprayer and sprayed simultaneously. The growth of the plants and any Phytotoxicity effects were then assessed at intervals over 21 days, according to EPPO guideline PP1/135. Five replicas were performed for each treatment, for each species. In the tables below C represents a percentage increase in necrosis relative to the control of 0.1-50; B represents a percentage inhibition of 50-80; and A represents a percentage inhibition of 80-100.

[2] = test system: white mustard Sinapsis alba; assay: as above
Description: as §1

[3] = test system: Abutilon theophrasti (China Jute); assay: Herbicidal efficacy screen, corrected necrosis
Description: (§2) Plants were obtained as seeds and were grown to the 2-4 true leaf stage. Plants were grown under laboratory conditions, individually in seed trays. Each plant (in an approximately 3 cm diameter plug) was then detached from the tray for spraying. The compounds were screened at a range of five concentrations, diluted in acetone and Tween™. A carrier only control was also conducted. Treatments were applied directly onto the plants, using a potter tower, at a specified application rate. One plant of each species was sprayed using a potter tower. The 3 different types of plants were placed on a 10 cm diameter platform directly beneath the potter sprayer and sprayed simultaneously. The growth of the plants and any Phytotoxicity effects were then assessed at intervals over 21 days, according to EPPO guideline PP1/135. In the tables below C represents a percentage increase in necrosis relative to the control of 0.1-50; B represents a percentage inhibition of 50-80; and A represents a percentage inhibition of 80-100. Certain compounds of the invention were screened for herbicidal efficacy against target plants: Amaranthus retroflexus (redroot pigweed), Abutilon theophrasti (China Jute): Capsella bursa-pastoris, (shepherd's-purse) Echinochloa crus-galli, Hordeum vulgare (Barley),

[4] = test system: Amaranthus retroflexus (redroot pigweed); assay: Herbicidal efficacy screen, corrected necrosis
Description: as §2

[5] = test system: Capsella bursa-pastoris, (shepherd's-purse); assay: Herbicidal efficacy screen, corrected necrosis
Description: as §2

[6] = 12.5 g/ha, day 1 post application
[7] = 12.5 g/ha, day 7 post application
[8] = 25 g/ha, day 1 post application
[9] = 25 g/ha, day 7 post application
[10] = 50 g/ha, day 1 post application
[11] = 50 g/ha, day 7 post application
[12] = 100 g/ha, day 1 post application
[13] = 100 g/ha, day 7 post application
[14] = 6.25 g/ha, day 1 post application
[15] = 6.25 g/ha, day 7 post application

CC(C)C(C)S(=O)(=O)NCc1cc(-n2c(=O)cc(C(F)(F)F)n(C)c2=O)c(F)cc1Cl (centres unmarked) [Compound 24, N-[[2-Chloro-4-fluoro-5-[3-methyl-2,6-dioxo-4-(trifluoromethyl)pyrimidin-1-yl]phenyl]methyl]-3-methyl-butane-2-sulfonamide]
Average of necrosis ([1]; day 5 post application): C (C represents a percentage increase in necrosis relative to the control of 0.1-50) | Average of necrosis ([1]; day 7 post application): C (C represents a percentage increase in necrosis relative to the control of 0.1-50) | Average of necrosis ([1]; day 10 post application): B (B represents a percentage inhibition of 50-80) | Average of necrosis [2, 6]: C (C represents a percentage increase in necrosis relative to the control of 0.1-50) | Average of necrosis ([2]; 12.5 g/ha, day 2 post application): C (C represents a percentage increase in necrosis relative to the control of 0.1-50) | Average of necrosis ([2]; 12.5 g/ha, day 3 post application): C (C represents a percentage increase in necrosis relative to the control of 0.1-50) | Average of necrosis ([2]; 12.5 g/ha, day 4 post application): C (C represents a percentage increase in necrosis relative to the control of 0.1-50) | Average of necrosis ([2]; 12.5 g/ha, day 5 post application): C (C represents a percentage increase in necrosis relative to the control of 0.1-50) | Average of necrosis [2, 7]: C (C represents a percentage increase in necrosis relative to the control of 0.1-50) | Average of necrosis ([2]; 12.5 g/ha, day 10 post application): C (C represents a percentage increase in necrosis relative to the control of 0.1-50) | Average of necrosis [2, 8]: C (C represents a percentage increase in necrosis relative to the control of 0.1-50) | Average of necrosis ([2]; 25 g/ha, day 2 post application): C (C represents a percentage increase in necrosis relative to the control of 0.1-50) | Average of necrosis ([2]; 25 g/ha, day 3 post application): C (C represents a percentage increase in necrosis relative to the control of 0.1-50) | Average of necrosis ([2]; 25 g/ha, day 4 post application): C (C represents a percentage increase in necrosis relative to the control of 0.1-50) | Average of necrosis ([2]; 25 g/ha, day 5 post application): C (C represents a percentage increase in necrosis relative to the control of 0.1-50) | Average of necrosis [2, 9]: C (C represents a percentage increase in necrosis relative to the control of 0.1-50) | Average of necrosis ([2]; 25 g/ha, day 10 post application): C (C represents a percentage increase in necrosis relative to the control of 0.1-50) | Average of necrosis [2, 10]: C (C represents a percentage increase in necrosis relative to the control of 0.1-50) | Average of necrosis ([2]; 50 g/ha, day 2 post application): C (C represents a percentage increase in necrosis relative to the control of 0.1-50) | Average of necrosis ([2]; 50 g/ha, day 3 post application): C (C represents a percentage increase in necrosis relative to the control of 0.1-50) | Average of necrosis ([2]; 50 g/ha, day 4 post application): C (C represents a percentage increase in necrosis relative to the control of 0.1-50) | Average of necrosis ([2]; 50 g/ha, day 5 post application): C (C represents a percentage increase in necrosis relative to the control of 0.1-50) | Average of necrosis [2, 11]: C (C represents a percentage increase in necrosis relative to the control of 0.1-50) | Average of necrosis ([2]; 50 g/ha, day 10 post application): C (C represents a percentage increase in necrosis relative to the control of 0.1-50) | Average of necrosis [2, 12]: C (C represents a percentage increase in necrosis relative to the control of 0.1-50) | Average of necrosis ([2]; 100 g/ha, day 2 post application): C (C represents a percentage increase in necrosis relative to the control of 0.1-50) | Average of necrosis ([2]; 100 g/ha, day 3 post application): C (C represents a percentage increase in necrosis relative to the control of 0.1-50) | Average of necrosis ([2]; 100 g/ha, day 4 post application): C (C represents a percentage increase in necrosis relative to the control of 0.1-50) | Average of necrosis ([2]; 100 g/ha, day 5 post application): C (C represents a percentage increase in necrosis relative to the control of 0.1-50) | Average of necrosis [2, 13]: C (C represents a percentage increase in necrosis relative to the control of 0.1-50) | Average of necrosis ([2]; 100 g/ha, day 10 post application): C (C represents a percentage increase in necrosis relative to the control of 0.1-50) | Average of necrosis ([2]; 200 g/ha, day 1 post application): C (C represents a percentage increase in necrosis relative to the control of 0.1-50) | Average of necrosis ([2]; 200 g/ha, day 2 post application): C (C represents a percentage increase in necrosis relative to the control of 0.1-50) | Average of necrosis ([2]; 200 g/ha, day 3 post application): C (C represents a percentage increase in necrosis relative to the control of 0.1-50) | Average of necrosis ([2]; 200 g/ha, day 4 post application): C (C represents a percentage increase in necrosis relative to the control of 0.1-50) | Average of necrosis ([2]; 200 g/ha, day 5 post application): C (C represents a percentage increase in necrosis relative to the control of 0.1-50) | Average of necrosis ([2]; 200 g/ha, day 7 post application): C (C represents a percentage increase in necrosis relative to the control of 0.1-50) | Average of necrosis ([2]; 200 g/ha, day 10 post application): C (C represents a percentage increase in necrosis relative to the control of 0.1-50) | Average of corrected necrosis [3, 14]: 0% | Average of corrected necrosis [3, 15]: A (A represents a percentage inhibition of 80-100) | Average of corrected necrosis [3, 6]: 0% | Average of corrected necrosis [3, 7]: A (A represents a percentage inhibition of 80-100) | Average of corrected necrosis [3, 8]: 0% | Average of corrected necrosis [3, 9]: A (A represents a percentage inhibition of 80-100) | Average of corrected necrosis [3, 10]: 0% | Average of corrected necrosis [3, 11]: A (A represents a percentage inhibition of 80-100) | Average of corrected necrosis [3, 12]: C (C represents a percentage increase in necrosis relative to the control of 0.1-50) | Average of corrected necrosis [3, 13]: A (A represents a percentage inhibition of 80-100) | Average of corrected necrosis [4, 14]: C (C represents a percentage increase in necrosis relative to the control of 0.1-50) | Average of corrected necrosis [4, 15]: A (A represents a percentage inhibition of 80-100) | Average of corrected necrosis [4, 6]: C (C represents a percentage increase in necrosis relative to the control of 0.1-50) | Average of corrected necrosis [4, 7]: A (A represents a percentage inhibition of 80-100) | Average of corrected necrosis [4, 8]: C (C represents a percentage increase in necrosis relative to the control of 0.1-50) | Average of corrected necrosis [4, 9]: A (A represents a percentage inhibition of 80-100) | Average of corrected necrosis [4, 10]: C (C represents a percentage increase in necrosis relative to the control of 0.1-50) | Average of corrected necrosis [4, 11]: A (A represents a percentage inhibition of 80-100) | Average of corrected necrosis [4, 12]: C (C represents a percentage increase in necrosis relative to the control of 0.1-50) | Average of corrected necrosis [4, 13]: A (A represents a percentage inhibition of 80-100) | Average of corrected necrosis [5, 14]: C (C represents a percentage increase in necrosis relative to the control of 0.1-50) | Average of corrected necrosis [5, 15]: A (A represents a percentage inhibition of 80-100) | Average of corrected necrosis [5, 6]: 0% | Average of corrected necrosis [5, 7]: B (B represents a percentage inhibition of 50-80) | Average of corrected necrosis [5, 8]: C (C represents a percentage increase in necrosis relative to the control of 0.1-50) | Average of corrected necrosis [5, 9]: A (A represents a percentage inhibition of 80-100) | Average of corrected necrosis [5, 10]: C (C represents a percentage increase in necrosis relative to the control of 0.1-50) | Average of corrected necrosis [5, 11]: A (A represents a percentage inhibition of 80-100) | Average of corrected necrosis [5, 12]: C (C represents a percentage increase in necrosis relative to the control of 0.1-50) | Average of corrected necrosis [5, 13]: A (A represents a percentage inhibition of 80-100)
